“Also recorded” adds a separate entry of the source.
Tests used:
[1] = Tissue distribution of In-111 in goats with bacterial abscesses (radioactivity per gram of tissue, scintillation counter); details: goat
Description: The distribution of In-111 was determined in the different organs and tissues of three goats. One goat was injected with In-111-oxinate labeled autologous granulocytes, one with plain In-111-oxinate and one with plain In-111-chloride. The injections with the isotope formulations took place 2 days before the animals were sacrificed and dissected. Pieces of abscess, organs and tissues were sampled, weighed and the radioactivity was measured in a scintillation counter. The radioactivities per gram of tissue were determined.
The tissue distribution of In-111 in the goat was determined to show the distribution of radioactivity among the organs.
In order to illustrate the process of the invention a goat with adjoining bacterial abscesses of 2 months and three days old was injected with In-111-oxinate (ca. 1 mCi). The goat was imaged by gamma camera the next day. […] The goat was sacrificed and the distribution of radioactivity between the different tissues and organs determined.
The goat that was intravenously injected with In-111-chloride was dissected two days after the injection, and the distribution of radioactivity among the different tissues and organs determined.

[2] = Description: The clearance of In-111 from the blood of the goats was followed after intravenous injection of In-111 in three different formulations, namely In-111-chloride, In-111-oxinate and In-111-oxinate labeled granulocytes, respectively, in order to determine the biological half life for each of these different formulations. After injection, 10 ml blood samples were taken at intervals. All blood samples were subjected to differential centrifugation in order to determine whether the radioactivity was localized in the plasma, platelets, red cell fraction or leukocytes. Platelet rich plasma (PRP) was prepared by centrifugation of heparinised blood at 200 g during 15 minutes. After sampling of the PRP (1 ml) the residue was centrifuged at 1600 g for 10 minutes. 1 ml samples were taken from the plasma layer (platelet poor plasma=PPP), from the interface between plasma and red cells (leukocytes) and from the red cell fraction. The radioactivities were determined and clearance was determined corrected for physical decay.
The clearance of In-111 from the blood of goats was followed after intravenous injection of In-111 in three different goats and formulations,namely, In-111-chloride, In-111-oxinate and In-111-oxinate labeled granulocytes, respectively, in order to determine the biological half-life of In-111.
The clearance of In-111 in a goat which was injected with In-111-oxinate labeled granulocytes was also studied.

blood cells = assay: Washing of blood cells with PBS (binding of radioactivity to blood cells after injection); details: goat blood cells
bacterial abscesses = assay: Gamma camera scintigraphy of bacterial abscesses in goats; type: in vivo; details: goat; for abscess visibility by gamma camera, adjoining bacterial abscesses of 2 months and three days old: about 1 mCi, imaged the next day
Description: Bacterial abscesses were also evoked in goats in accordance with the following procedure: 4 Droppings (faeces) of goats were stirred in 10 ml phosphate-buffered, saline solution (pH 7.2), emulsified in 10 ml mineral oil (Freund's complete adjuvant), and injected subcutaneously into four goats (2.5 ml per goat) at the left flank of the abdomen. Within a day the goats developed fever (temperature rose from 39.3° to over 40° C.) and a firm abscess with a diameter of about 10 cm. appeared.
In order to prepare granulocyte suspensions blood was sampled from a goat via the neck vein, and anticoagulated by the addition of heparin. The granulocytes were purified by a known sedimentation technique. The separation fluid consisted of: 10 Parts of Isopaque (sodium metrizoate) (32.8%) mixed with 24 parts Ficoll (Pharmacia) 8% (in H2 O). The density was: 1.077 g/ml. Equal parts of anticoagulated blood and 0.9% NaCl were mixed and 20 ml of the mixture was layered over 10 ml of Isopaque-Ficoll in a centrifuge tube. The mixture was centrifuged at 1000 g for 15 minutes. After centrifugation the mononuclear cells (monocytes and lymphocytes) were found as a narrow band at the interface between the plasma layer and the separation fluid. The layer above the erythrocyte sediment, also containing granulocytes, was removed down to 1 to 2 mm above the erythrocyte meniscus. The erythrocyte layer was mixed with a 3 to 5 fold volume of phosphate-buffered saline solution and centrifuged for 7 minutes at 1200 g. The supernatant was pipetted-off down to the erythrocyte meniscus. The erythrocytes were lysed by addition of 30 ml 155 mM NH4 Cl solution (also containing 10 mM KHCO3 0.1 mM EDTA) pH 7.4, mixing and 15 minutes storage at 4° C. After centrifugation (400 g) the granulocytes were resuspended in NH4 Cl solution (15 ml) 0.5% albumin and stored 15 minutes at 4° C. After microscopic control the cells were washed in PBS containing 0.5% albumin and were consecutively suspended in 5 ml PBS containing 0.5% albumin. In that condition the cells are ready for indium-111-oxinate labeling.
Indium-111-oxinate labeled granulocytes were made by the Thakur procedure. In this preparation 2×50 ml conical centrifuge tubes are sterilized at 120° C. for 2 hours. In-111 Cl3 (Byk-Mallinckrodt CIL B.V.) 0.1 M HCl solution (5 mCi/ml) is used. 1 ml H2 O is added for injection, as are 50 μl oxine (BDH or Merck) solution (1 mg/ml in ethanol), and 200 μl acetate buffer 0.3 M pH 5.6 after a short wait of about a minute. The In-111-oxinate is extracted into about 2 ml CHCl3, and is evaporated to dryness by heating in a water bath. The material is dissolved in 100 μl absolute ethanol and again evaporated and dissolved in 50 μl absolute ethanol. […]

[3] = intravenous, two days after the injection

[111In+3].[O-]c1cccc2cccnc12.[O-]c1cccc2cccnc12.[O-]c1cccc2cccnc12 [In-111-oxinate]
accumulation of In-111 in the cell fraction of the blood (tissue distribution study) [1]: strong accumulation of In-111 in the cell fraction of the blood, almost as much as the radioactivity per gram of tissue of the spleen
accumulation of radioactivity in fat, muscle, marrow from the femur, gall, faeces, pancreas and urine [1]: no significant accumulation of radioactivity
accumulation of radioactivity in heart muscle [1]: moderate accumulation of In-111
radioactivity in pus of the old and new abscesses [1]: little radioactivity
accumulation of In-111 in tissue of the old abscess ([1]; 2 months old abscess): high accumulation of In-111, similar to the kidney and ovarium
radioactivity of inflamed lymph node relative to a non-inflamed one ([1]; 2 days after injection): two
radioactivity accumulation in tissue of the new abscess ([1]; three days old abscess): moderate radioactivity accumulation more than, for example, the lymph node and muscles, but far less than ovarium, uterus, lung, kidney, spleen and blood
course of radioactivity in blood after injection (another goat) ([2]; another goat): gradual decrease of radioactivity immediately after the goat was injected
preference of the cells for the agent (another experiment in another goat) ([2]; another goat): strong preference of the cells
preference of indium-111 for white cells ([2]; another goat, sample had about an equal amount of plasma): no preference of indium-111 for white cells
time of optimal accumulation in the cell fraction of the blood ([2]; goat, after injection): five
In-111 activity level in blood after two days ([2]; goat, intravenous): very slow decline of the activity level
In-111 level in the blood, first two days ([2]; goat, intravenous): gradual increase of In-111 in the blood for two days
radioactivity in the blood one week later ([2]; goat, intravenous): still a significant amount of radioactivity in the blood
preference of In-111 for the cell fraction of the blood ([2]; goat, intravenous, clearance study): clear preference of In-111 to accumulate in the cell fraction of the blood
binding of radioactivity to blood cells on washing with PBS (blood cells): firmly bound
abscess visibility by gamma camera, adjoining bacterial abscesses of 2 months and three days old (bacterial abscesses): clear spot

[Cl][111In]([Cl])[Cl] [In-111-chloride]
accumulation of In-111 in the cell fraction of the blood (tissue distribution study) [1]: only a small amount of In-111 accumulated in the blood cells
radioactivity in pus of the old and new abscesses [1]: hardly any radioactivity
radioactivity in the kidney ([1]; 2 days after injection): strongly labeled
radioactivity of inflamed lymph node relative to a non-inflamed one ([1]; 2 days after injection): three
accumulation of In-111 in fat, urine and gall [1, 3]: no significant accumulation of In-111
accumulation of radioactivity in intraperitoneally penetrated part of the abscess [1, 3]: slightly higher accumulation of radioactivity, but the accumulation was less than in the old abscess in the In-111-oxinate study
accumulation of radioactivity in the spleen and liver [1, 3]: moderate accumulations of radioactivity
distribution of blood radioactivity between plasma and cells [1, 3]: Most of the radioactivity was in the plasma, not in the cells
labeling of the blood [1, 3]: very moderately labeled
radioactivity in tissue of old and new abscesses [1, 3]: moderate radioactivity, somewhat more than lymph node and muscle, far less than ovarium, uterus, lung and kidney
clearance of indium from blood, four days ([2]; goat, intravenous): almost disappeared in four days
clearance of indium from blood, level within two days ([2]; goat, intravenous): decline to a very low level of radioactivity within two days
binding of radioactivity to blood cells on washing with PBS (blood cells): could be easily washed out; also recorded: could be washed out by PBS
abscess visibility by gamma camera, adjoining bacterial abscesses of 2 months and three days old (bacterial abscesses): well-visible spot
abscess visibility by gamma camera, bacterial abscesses of 2 months and three days old, subcutaneous injection (bacterial abscesses; ca. 1 mCi, accidental subcutaneous injection, twenty-four hours later): distinct, well-visible spot
spread of radioactivity after subcutaneous injection (bacterial abscesses; ca. 1 mCi, subcutaneous): spread via the peripheral vascular system, not via the neck vein to the heart and the lungs
